“And” between values parts separate entries of the source, which are not always exact repeats. Identical values can stand only once.
Columns and labels:
G542X#10-HBE5x5 = experiment: Read-through of a premature termination codon, G542X#10-HBE5x5 (Table 3); assay type: cell-based; conditions: with G418
Method: (§1) The compounds shown in Table 1 were evaluated for their ability to stimulate read-through of a premature termination codon, and their respective activities are shown in Tables 2 and 3 below.

W134X-CF#14 FRT = experiment: Read-through of a premature termination codon, W134X-CF#14 FRT data, with G418; assay type: cell-based; conditions: in presence of G418
Method: as §1

| SMILES | EC50 (G542X#10-HBE5x5) | EC50 (W134X-CF#14 FRT) [µM] |
| --- | --- | --- |
| CCn1c(=O)c(C(=O)CN(C)Cc2ccc(C(=O)NC)cc2)c(N)n(Cc2ccccc2)c1=O [1.2] | ≥ 100 µM | 109 |
| CCn1c(=O)c(C(=O)CN2CCC(c3ccccc3)C2)c(N)n(Cc2ccccc2)c1=O (stereo not shown) [1.3] | ≥ 100 µM | 22.7 |
| CCn1c(=O)c(C(=O)CN2CCN(c3ncccn3)CC2)c(N)n(Cc2ccccc2)c1=O [1.4] | ≥ 100 µM | 99.9 |
| CCn1c(=O)c(C(=O)CN2CCc3cc(F)ccc3C2)c(N)n(Cc2ccccc2)c1=O [1.7] | ≥ 100 µM | 32.1 |
| CCn1c(=O)c(C(=O)CNCC2CCCCO2)c(N)n(Cc2ccccc2)c1=O (stereo not shown) [1.8] | ≥ 100 µM | 166 |
| CCn1c(=O)c(C(=O)CN2CCCC2C(=O)OC)c(N)n(Cc2ccccc2)c1=O (stereo not shown) [1.12] | ≥ 100 µM | 46 |
| CCn1c(=O)c(C(=O)CNCc2ccccc2)c(N)n(Cc2ccccc2)c1=O [1.14] | ≥ 100 µM | 12.3 |
| CCOC(=O)C1CCCCN1CC(=O)c1c(N)n(Cc2ccccc2)c(=O)n(CC)c1=O (stereo not shown) [1.22] | ≥ 100 µM | 83.2 |
| CCn1c(=O)c(C(=O)CN2CCC[C@@H]2C(=O)OC)c(N)n(Cc2ccccc2)c1=O [1.24] | ≥ 100 µM | 23.1 |
| CCn1c(=O)c(C(=O)CNc2nc3ccccc3[nH]2)c(N)n(Cc2ccccc2)c1=O [1.29] | 62.3 µM | 11.7 |
| CCn1c(=O)c(C(=O)CN(Cc2ccccc2)C2CCCCC2)c(N)n(Cc2ccccc2)c1=O [1.30] | 90.5 µM | 67.5 |
| CCN(CC(N)=O)CC(=O)c1c(N)n(Cc2ccccc2)c(=O)n(CC)c1=O [1.36] | ≥ 100 µM | 93.9 |
| NC(=O)[C@H]1CCCCN1CC(=O)c1c(N)n(Cc2ccc(F)cc2)c(=O)n(Cc2ccc(F)cc2)c1=O [1.47, (2R)-1-[2-[4-amino-1,3-bis[(4-fluorophenyl)methyl]-2,6-dioxo-pyrimidin-5-yl]-2-oxo-ethyl]piperidine-2-carboxamide] | 50 µM | 3.19 |
| CCn1c(=O)c(C(=O)CN2CCOCC2C(N)=O)c(N)n(Cc2ccccc2)c1=O (stereo not shown) [1.53] | ≥ 100 µM | ≥ 100 |
| CCn1c(=O)c(C(=O)CN(Cc2ncco2)C(C)C)c(N)n(Cc2ccccc2)c1=O [1.56] | ≥ 100 µM | ≥ 100 |
| CCn1c(=O)c(C(=O)CN(C)C)c(N)n(Cc2cc(Cl)c(F)cc2F)c1=O [1.198] | ≥ 100 µM |  |
| CCn1c(=O)c(C(=O)CNCCC(N)=O)c(N)n(Cc2ccc(F)cc2)c1=O [1.201] | ≥ 100 µM |  |
| CCn1c(=O)c(C(=O)CN2CCNC(=O)C2)c(N)n(Cc2ccc(F)cc2)c1=O [1.209] | ≥ 100 µM |  |
| CCn1c(=O)c(C(=O)CN2CCCNC2=O)c(N)n(Cc2ccc(F)cc2)c1=O [1.212] | ≥ 100 µM |  |
| CCn1c(=O)c(C(=O)CN2CCCN(C)C2=O)c(N)n(Cc2ccc(F)cc2)c1=O [1.215] | ≥ 100 µM |  |
| CCn1c(=O)c(C(=O)CN2CCN(C)C(=O)C2)c(N)n(Cc2ccc(F)cc2)c1=O [1.216] | ≥ 100 µM |  |
| CCn1c(=O)c(C(=O)CN2CCCC[C@@H]2C(N)=O)c(N)n(Cc2ccc(O)cc2)c1=O [1.217] | ≥ 100 µM |  |
| NC(=O)[C@H]1CCCCN1CC(=O)c1c(N)n(Cc2ccc(F)cc2)c(=O)n(CC2CC2)c1=O [1.218] | ≥ 100 µM |  |
| CCn1c(=O)c(C(=O)CN(c2cccc(C(N)=O)c2)C(C)C)c(N)n(Cc2ccc(F)cc2)c1=O [1.219] | 48.5 µM |  |
| CCn1c(=O)c(C(=O)CN2CCc3cccc(C(=O)OC)c3C2)c(N)n(Cc2ccc(F)cc2)c1=O [1.220] | ≥ 100 µM |  |
| CCn1c(=O)c(C(=O)CN2CCC(O)CC2C(N)=O)c(N)n(Cc2ccc(F)cc2)c1=O (stereo not shown) [1.221] | ≥ 100 µM |  |
| CCn1c(=O)c(C(=O)CN2CCc3cccc(C(N)=O)c3C2)c(N)n(Cc2ccc(F)cc2)c1=O [1.222] | ≥ 100 µM |  |
| CCn1c(=O)c(C(=O)CN2CCCc3c(C(N)=O)cccc32)c(N)n(Cc2ccc(F)cc2)c1=O [1.223] | ≥ 100 µM |  |

| SMILES | EC50 (G542X#10-HBE5x5) | EC50 (W134X-CF#14 FRT) [µM] |
| --- | --- | --- |
| CCn1c(=O)c(C(=O)CN2CCCc3ccc(C(N)=O)cc32)c(N)n(Cc2ccc(F)cc2)c1=O [1.224] | ≥ 100 µM |  |
| CCn1c(=O)c(C(=O)CNC2CCC(=O)NC2=O)c(N)n(Cc2ccc(F)cc2)c1=O (stereo not shown) [1.226] | ≥ 100 µM |  |
| CCn1c(=O)c(C(=O)CNc2ccc(C)cc2)c(N)n(Cc2ccc(F)cc2)c1=O [1.227] | ≥ 100 µM |  |
| NC(=O)C1CCCCN1CC(=O)c1c(N)n(Cc2ccc(F)cc2)c(=O)n(CCC(=O)O)c1=O (stereo not shown) [1.228] | ≥ 100 µM |  |
| CCn1c(=O)c(C(=O)CN2CCCC[C@H]2C(N)=O)c(N)n(Cc2ccc(F)cc2)c1=O [2.1] | ≥ 30 µM |  |
| CCn1c(=O)c(C(=O)CN2CCCC[C@@H]2C(=O)OC)c(N)n(Cc2ccc(F)cc2)c1=O [2.2] | ≥ 30 µM |  |
| CCn1c(=O)c(C(=O)CN2CCCC[C@@H]2C(N)=O)c(N)n(Cc2ccccc2F)c1=O [2.3] | ≥ 30 µM |  |
| CCN(CC)C(=O)[C@H]1CCCCN1CC(=O)c1c(N)n(Cc2ccc(F)cc2)c(=O)n(CC)c1=O [2.4] | ≥ 30 µM |  |
| CCn1c(=O)c(C(=O)CN2CCCC[C@@H]2C(=O)N2CCCC2)c(N)n(Cc2ccc(F)cc2)c1=O [2.5] | ≥ 30 µM |  |
| CCn1c(=O)c(C(=O)CN2CCCC[C@@H]2C(=O)NC)c(N)n(Cc2ccc(F)cc2)c1=O [2.6] | ≥ 30 µM |  |
| CCn1c(=O)c(C(=O)CN2CCCC[C@@H]2C(N)=O)c(N)n(CCc2ccc(F)cc2)c1=O [2.7] | ≥ 30 µM |  |
| CCn1c(=O)c(C(=O)CN2CCCC[C@@H]2C(N)=O)c(N)n(Cc2cccc(C)n2)c1=O [2.8] | ≥ 30 µM |  |
| CCn1c(=O)c(C(=O)CN2CCCC[C@@H]2C(N)=O)c(N)n(Cc2cccc(F)c2)c1=O [2.10] | ≥ 30 µM |  |
| CCn1c(=O)c(C(=O)CN2CCCC[C@@H]2C(N)=O)c(N)n(Cc2ccc(F)cc2F)c1=O [2.11] | ≥ 30 µM and 18.2 µM |  |
| CCn1c(=O)c(C(=O)CN2CCCC[C@@H]2C(N)=O)c(N)n(Cc2ccc(C(F)F)cc2)c1=O [2.12] | ≥ 30 µM |  |
| CC(C)n1c(=O)c(C(=O)CN2CCCC[C@@H]2C(N)=O)c(N)n(Cc2ccc(F)cc2)c1=O [2.13] | ≥ 30 µM |  |
| CCn1c(=O)c(C(=O)CN2CCCC[C@@H]2C(N)=O)c(N)n(Cc2ccc(OC(C)C)cc2)c1=O [2.14] | ≥ 30 µM |  |
| CCn1c(=O)c(C(=O)CN2CCCC[C@@H]2C(N)=O)c(N)n(Cc2nccn2C)c1=O [2.15] | ≥ 30 µM |  |
| CCn1c(=O)c(C(=O)CN2CCCC[C@@H]2C(N)=O)c(N)n(-c2cccc(F)c2)c1=O [2.16] | ≥ 30 µM |  |
| CCn1c(=O)c(C(=O)CN2CCCC[C@@H]2C(N)=O)c(N)n(Cc2ccc(F)c(Cl)c2)c1=O [2.17] | ≥ 30 µM |  |
| CCn1c(=O)c(C(=O)CN2CCCC[C@@H]2C(N)=O)c(N)n(Cc2ccc(Cl)c(F)c2)c1=O [2.18] | ≥ 30 µM |  |
| CCn1c(=O)c(C(=O)CN(C(C)C)C(C)(C)C(N)=O)c(N)n(Cc2ccc(F)cc2)c1=O [2.19] | ≥ 30 µM |  |
| CCn1c(=O)c(C(=O)CN2CCCC[C@@H]2C(N)=O)c(N)n(Cc2ccc(C#N)c(F)c2)c1=O [2.20] | ≥ 30 µM |  |
| CCn1c(=O)c(C(=O)CN2CCCC[C@@H]2C(N)=O)c(N)n(Cc2ccc(F)nc2)c1=O [2.21] | ≥ 30 µM |  |
| CCn1c(=O)c(C(=O)CN2CCCC[C@@H]2C(N)=O)c(N)n(Cc2ccc(F)cn2)c1=O [2.22] | ≥ 30 µM |  |
| CCn1c(=O)c(C(=O)CN2CCCC[C@@H]2C(N)=O)c(N)n(Cc2ccc(C#N)cc2F)c1=O [2.23] | ≥ 30 µM |  |
| CCn1c(=O)c(C(=O)CN2CCCC[C@@H]2C(N)=O)c(N)n(Cc2ccc(C(F)(F)F)nc2)c1=O [2.24] | ≥ 30 µM |  |
